Source: paper PMC10940605, “Design, synthesis and in vitro anticancer activity of some new lomefloxacin derivatives” (Scientific Reports, 2024)

Assays:
[1] = test system: 60 human cancer cell lines; assay: NCI-60 SRB screen, whole panel; format: cell-based; details: for activity at 10 µM / LC50 / GI50 / inhibition at 10 µM: Homo sapiens; for activity at 10 µM: 48 h, One Dose Mean Graph, Conc 1.00E-5 Molar, read-out: Mean Growth Percent; for LC50 / Log10 TGI _MID: mean over panel, Units Molar; for LC50: read-out: Log10 LC50 _MID (converted); for GI50: mean over the cell line panel (_MID), Molar, read-out: Mean Log10 GI50 (converted); for inhibition at 10 µM: single dose 10^–5 M, 60 cell lines, read-out: mean percent growth inhibition
OVCAR-3 = assay: NCI-60 SRB screen; format: cell-based; details: Homo sapiens; OVCAR-3, 10^–5 Molar; read-out: Percent growth inhibition
SK-OV-3 = assay: NCI-60 SRB screen; format: cell-based; details: Homo sapiens; SK-OV-3, 10^–5 Molar; read-out: Percent growth inhibition
MOLT-4 = assay: NCI-60 SRB screen; format: cell-based; details: Homo sapiens; MOLT-4, 10^–5 Molar; read-out: Percent growth inhibition
CAKI-1 = assay: NCI-60 SRB screen; format: cell-based; details: Homo sapiens; CAKI-1, 10^–5 Molar; read-out: Percent growth inhibition
Summary of the method: (§1)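 Single-dose screen at 10^−5 M; cells grown in RPMI 1640 with 2 mM L-glutamine and FBS for 24 h, then exposed to compound for 48 h at 37 °C, 5% CO2. TCA-fixed, SRB-stained, absorbance read at […]; percentage growth inhibition calculated against time-zero and control wells.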

SF-268 = assay: NCI-60 SRB screen; format: cell-based; details: Homo sapiens; SF-268, 10^–5 Molar; read-out: Percent growth inhibition
Summary of the method: (§2)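 After a 24 h pre-incubation, the cells received test compound at a single 10^−5 M dose and were incubated a further 48 h. Endpoint was SRB dye binding.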

MCF7 = assay: NCI-60 SRB screen; format: cell-based; details: Homo sapiens; MCF7, 10^–5 Molar; read-out: Percent growth inhibition
Summary of the method: as §1

NCI-H460 = assay: NCI-60 SRB screen; format: cell-based; details: Homo sapiens; NCI-H460, 10^–5 Molar; read-out: Percent growth inhibition
Summary of the method: as §1

A549/ATCC = assay: NCI-60 SRB screen; format: cell-based; details: Homo sapiens, 10^–5 Molar, read-out: Percent growth inhibition
Summary of the method: as §1

T-47D = assay: NCI-60 SRB screen; format: cell-based; details: Homo sapiens, T47D, 10^–5 Molar, read-out: Percent growth inhibition
Summary of the method: as §2

NCI-H23 = assay: NCI-60 SRB screen; format: cell-based; details: Homo sapiens; NCI-H23, 10^–5 Molar; read-out: Percent growth inhibition
Summary of the method: as §1

BT-549 = assay: NCI-60 SRB screen; format: cell-based; details: Homo sapiens; BT-549, 10^–5 Molar; read-out: Percent growth inhibition
Summary of the method: as §1

K-562 = assay: NCI-60 SRB screen; format: cell-based; details: Homo sapiens, K562; K-562, 10^–5 Molar; read-out: Percent growth inhibition
Summary of the method: as §2

HS 578T = assay: NCI-60 SRB screen; format: cell-based; details: Homo sapiens, 10^–5 Molar, read-out: Percent growth inhibition
Summary of the method: as §1

SF-295 = assay: NCI-60 SRB screen; format: cell-based; details: Homo sapiens; SF-295, 10^–5 Molar; read-out: Percent growth inhibition
Summary of the method: as §2

HCT-15 = assay: NCI-60 SRB screen; format: cell-based; details: Homo sapiens; HCT-15, 10^–5 Molar; read-out: Percent growth inhibition
Summary of the method: as §1

UACC-62 = assay: NCI-60 SRB screen; format: cell-based; details: Homo sapiens; UACC-62, 10^–5 Molar; read-out: Percent growth inhibition
Summary of the method: as §2

PC-3 = assay: NCI-60 SRB screen; format: cell-based; details: Homo sapiens; PC-3, 10^–5 Molar; read-out: Percent growth inhibition
Summary of the method: as §2

SNB-75 = assay: NCI-60 SRB screen; format: cell-based; details: Homo sapiens; SNB-75, 10^–5 Molar; read-out: Percent growth inhibition
Summary of the method: as §1

leukemia SR = assay: NCI-60 SRB screen; format: cell-based; details: Homo sapiens; for inhibition at 10 µM: SR, 10^–5 Molar, read-out: Percent growth inhibition
Summary of the method: as §1

NCI-H226 = assay: NCI-60 SRB screen; format: cell-based; details: Homo sapiens; NCI-H226, 10^–5 Molar; read-out: Percent growth inhibition
Summary of the method: as §2

A498 = assay: NCI-60 SRB screen; format: cell-based; details: Homo sapiens; A498, 10^–5 Molar; read-out: Percent growth inhibition
Summary of the method: as §2

SMILES	activity at 10 µM [1] [%]	inhibition at 10 µM (OVCAR-3) [%]	inhibition at 10 µM (MOLT-4) [%]	inhibition at 10 µM (CAKI-1) [%]	inhibition at 10 µM (SF-268) [%]	inhibition at 10 µM (MCF7) [%]	inhibition at 10 µM (NCI-H460) [%]	inhibition at 10 µM (A549/ATCC) [%]	inhibition at 10 µM (T-47D) [%]	inhibition at 10 µM (NCI-H23) [%]	inhibition at 10 µM (BT-549) [%]	inhibition at 10 µM (K-562) [%]	inhibition at 10 µM (HS 578T) [%]	inhibition at 10 µM (SF-295) [%]	inhibition at 10 µM (HCT-15) [%]	inhibition at 10 µM (UACC-62) [%]	inhibition at 10 µM (PC-3) [%]	inhibition at 10 µM (SNB-75) [%]	inhibition at 10 µM (leukemia SR) [%]	inhibition at 10 µM (NCI-H226) [%]	further results
CCn1cc(C(=O)NN=Cc2cccs2)c(=O)c2cc(F)c(N3CCNC(C)C3)c(F)c21 (stereo not drawn) [Compound 3e, 1-Ethyl-6,8-difluoro-7-(3-methylpiperazin-1-yl)-4-oxo-N'-(thiophen-2-ylmethylene)-1,4-dihydroquinoline-3-carbohydrazide]	52.6	31.3	24.9	53.5	20.9	177	76.4	56	22.2	10.2	38.4	139	13.9	14.7	75	3.47	23.7	11.5	104	24	LC50 [1]: 7.24 µM; GI50 [1]: 1.82 µM; inhibition at 10 µM [1]: > 47%; Log10 TGI _MID [1]: -5.44; inhibition at 10 µM (SK-OV-3): 9.74%; IC50 (leukemia SR; Leukemia SR cells, concentration used for cell cycle and apoptosis tests): 1.9 µM
CCn1cc(C(=O)NN=Cc2cccnc2)c(=O)c2cc(F)c(N3CCNC(C)C3)c(F)c21 (stereo not drawn) [Compound 3d, 1-Ethyl-6,8-difluoro-7-(3-methylpiperazin-1-yl)-4-oxo-N'-(pyridin-3-ylmethylene)-1,4-dihydroquinoline-3-carbohydrazide]	53.2	59.8	65.6	67.8	63	80.9	63	14.4	52.6	50.9	23.1	71.9	57.8	15.1	1.76	48.6	49.1	41.1	66.4	58.2	inhibition at 10 µM (SK-OV-3): 16.2%; inhibition at 10 µM (A498): 40.3%; melting point: 241 to 243 °C
CCn1cc(C(=O)NN=Cc2ccccc2)c(=O)c2cc(F)c(N3CCNC(C)C3)c(F)c21 (stereo not drawn) [Compound 3a, N'-Benzylidene-1-ethyl-6,8-difluoro-7-(3-methylpiperazin-1-yl)-4-oxo-1,4-dihydroquinoline-3-carbohydrazide]	-2.19	175	125	54.2	61.1	184	173	184	36.4	31.5	22.2	139	30.3	91.1	186	128	51.1	7.18	115	12.6	LC50 [1]: 5.89 µM; GI50 [1]: 1.7 µM; inhibition at 10 µM [1]: > 47%; Log10 TGI _MID [1]: -5.49; inhibition at 10 µM (A498): 0.4%
CCn1cc(C(=O)NN=Cc2cccc(F)c2)c(=O)c2cc(F)c(N3CCNC(C)C3)c(F)c21 (stereo not drawn) [Compound 3b, 1-Ethyl-6,8-difluoro-N′-(3-fluorobenzylidene)-7-(3-methylpiperazin-1-yl)-4-oxo-1,4-dihydroquinoline-3-carbohydrazide]	11.2	183	126	33.3	60.6	184	179	167	27.7	23.8	17.1	152	18.7	24.3	182	35.2	30.4	9.9	129	2.9	LC50 [1]: 6.61 µM; GI50 [1]: 1.7 µM; inhibition at 10 µM [1]: > 47%; Log10 TGI _MID [1]: -5.47; inhibition at 10 µM (A498): 0.84%
CCn1cc(C(=O)O)c(=O)c2cc(F)c(N3CCN(CC(=O)Nc4ccc(Cl)cc4)C(C)C3)c(F)c21 (stereo not drawn) [Compound 5b, 7-(4-(2-((4-Chlorophenyl)amino)-2-oxoethyl)-3-methylpiperazin-1-yl)-1-ethyl-6,8-difluoro-4-oxo-1,4-dihydroquinoline-3-carboxylic acid]	94.6		1	13.7	6.49	10.6	9.4	6.12	11.2	7.93	0.23	14.2	11.2	13	1.39	40.8	12.1	17.7		3.83	inhibition at 10 µM (SK-OV-3): 9.6%; inhibition at 10 µM (A498): 27.1%; melting point: 218 to 220 °C
